Data on seven compounds can be found in ChEMBL document CHEMBL3639046, “Substituted pyrimido[1,2-b]indazoles and their use as modulators of the Pi3K/Akt pathway” (2015).

Sequence of RAC-alpha serine/threonine-protein kinase (P31749 whole entry): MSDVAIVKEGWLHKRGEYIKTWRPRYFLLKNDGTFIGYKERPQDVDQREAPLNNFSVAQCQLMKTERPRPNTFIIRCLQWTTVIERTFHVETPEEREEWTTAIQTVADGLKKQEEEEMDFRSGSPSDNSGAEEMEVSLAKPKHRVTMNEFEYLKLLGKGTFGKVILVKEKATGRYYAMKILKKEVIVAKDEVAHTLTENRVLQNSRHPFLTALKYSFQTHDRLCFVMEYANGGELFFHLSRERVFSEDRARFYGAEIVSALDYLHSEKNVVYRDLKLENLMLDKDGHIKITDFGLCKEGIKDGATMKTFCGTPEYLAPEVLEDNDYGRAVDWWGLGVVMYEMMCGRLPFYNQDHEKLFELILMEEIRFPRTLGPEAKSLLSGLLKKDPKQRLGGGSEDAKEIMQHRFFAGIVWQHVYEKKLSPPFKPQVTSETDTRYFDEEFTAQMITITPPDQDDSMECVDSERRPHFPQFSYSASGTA

The assay has as its target RAC-alpha serine/threonine-protein kinase (Homo sapiens, UniProt P31749). Briefly: TR-FRET assay: For the assay 50 nl of a 100fold concentrated solution of the test compound in DMSO was pipetted into a black low volume 384well microtiter plate (Greiner Bio- One, Frickenhausen, Germany), 2 ul of a solution of Akt1 in assay buffer [50 mM TRIS/HCI pH 7.5, 5 mM MgCI2, 1 mM dithiothreitol, 0.02% (v/v) Triton X-100 (Sigma)] were added and the mixture was incubated for 15 min at 22 C to allow pre-binding of the test compounds to the enzyme before the start of the kinase reaction. Then the kinase reaction was started by the addition of 3 ul of a solution of adenosine-tri-phosphate (ATP, 16.7 ul => final cone, in the 5 ul assay volume is 10 ul) and substrate (1 .67 ul => final cone, in the 5 ul assay volume is 1 ul) in assay buffer and the resulting mixture was incubated for a reaction time of 60 min at 22 C. The concentration of Akt1 in the assay was adjusted depending of the activity of the enzyme lot. In general terms: In TR-FRET formats the signal depends on donor and acceptor labels being close together.
Consider `NC1(c2ccc(-c3nc4c5cccc(O)c5nn4cc3-c3ccccc3)cc2)CCC1`, for which the IC50 was 100 nM. In the case of `N#Cc1cccc(-c2cccc3c2nn2cc(-c4ccccc4)c(-c4ccc(C5(N)CCC5)cc4)nc32)c1` it was 10000 nM; in that of `N#Cc1cccc(-c2ccc3nn4cc(-c5ccccc5)c(-c5ccc(C6(N)CCC6)cc5)nc4c3c2)c1`, 67 nM; in that of `NC1(c2ccc(-c3nc4c5cc(-c6ccc(F)cc6)ccc5nn4cc3-c3ccccc3)cc2)CCC1`, 110 nM.

Regarding `N#Cc1ccc(-c2cccc3nn4cc(-c5ccccc5)c(-c5ccc(C6(N)CCC6)cc5)nc4c23)cc1`, the IC50 came out at 320 nM. The result for `N#Cc1cccc2c1nn1cc(-c3ccccc3)c(-c3ccc(C4(N)CCC4)cc3)nc21` reads 49 nM; that for `NC1(c2ccc(-c3nc4c5cc(F)ccc5nn4cc3-c3ccccc3)cc2)CCC1`, 93 nM.

Usually IC50 stands for the concentration needed to halve the response being measured.
